Structures can show the parent of a compound that is named as a salt.

By melting point is commonly meant the temperature, or range, at which the solid turns liquid.

Consider `CN(C)CCNC1=CC(=O)c2sc(C(=O)N3CCN(S(C)(=O)=O)CC3)nc2C1=O` [Example 19, 5-{[2-(dimethylamino)ethyl]amino}-2-{[4-(methylsulphonyl)piperazin-1-yl]carbonyl}-1,3-benzothiazole-4,7-dione], for which the melting point is 201 to 202 °C.

Take `CN(C)CCNC1=CC(=O)c2sc(C(=O)N3CCCC3)nc2C1=O` [Example 22, 5-{[2-(dimethylamino)ethyl]amino}-2-(pyrrolidin-1-ylcarbonyl)-1,3-benzothiazole-4,7-dione]: the melting point was in the range of 207 to 208 °C.

`COc1ccc2c(c1)CCCN2C(=O)c1nc2c(s1)C(=O)C=C(NCCN(C)C)C2=O` [Example 36, 5-{[2-(dimethylamino)ethyl]amino}-2-[(6-methoxy-3,4-dihydroquinolin-1(2H)-yl)carbonyl]-1,3-benzothiazole-4,7-dione] came in with a melting point of 192 to 193 °C. The figure for `COc1ccc(C(=O)N2CCN(C(=O)c3nc4c(s3)C(=O)C=C(NCCN(C)C)C4=O)CC2)cc1` [Example 37, 5-{[2-(dimethylamino)ethyl]amino}-2-{[4-(4-methoxybenzoyl)piperazin-1-yl]carbonyl}-1,3-benzothiazole-4,7-dione] is 209 to 210 °C; for `CN(C)CCNC1=CC(=O)c2sc(C(=O)N3CCN(C(=O)C4CCCO4)CC3)nc2C1=O` (centres unmarked) [Example 20, 5-{[2-(dimethylamino)ethyl]amino}-2-{[4-(tetrahydrofuran-2-ylcarbonyl)piperazin-1-yl]carbonyl}-1,3-benzothiazole-4,7-dione] it is 168 to 169 °C; for `CCNC(=O)c1nc2c(s1)C(=O)C=C(NCCN(C)C)C2=O` [Example 24, 5-{[2-(dimethylamino)ethyl]amino}-N-ethyl-4,7-dioxo-4,7-dihydro-1,3-benzothiazole-2-carboxamide] it is 174 to 175 °C. The figure for `CN(C)CCNC1=CC(=O)c2sc(C(=O)N3CCN(C(=O)N4CCOCC4)CC3)nc2C1=O` [Example 16, 5-{[2-(dimethylamino)ethyl]amino}-2-{[4-(morpholin-4-ylcarbonyl)piperazin-1-yl]carbonyl}-1,3-benzothiazole-4,7-dione] is 211 to 212 °C; for `CCNC(=O)c1nc2c(s1)C(=O)C=C(N(C)CCN(C)C)C2=O` [Example 38, 5-[[2-(dimethylamino)ethyl](methyl)amino]-N-ethyl-4,7-dioxo-4,7-dihydro-1,3-benzothiazole-2-carboxamide] it is 163 to 164 °C; for `CN(C)CCNC1=CC(=O)c2sc(C(=O)Nc3ccc4c(c3)OCO4)nc2C1=O` [Example 26, N-1,3-benzodioxol-5-yl-5-{[2-(dimethylamino)ethyl]amino}-4,7-dioxo-4,7-dihydro-1,3-benzothiazole-2-carboxamide] it is 220 to 221 °C.

`CN(C)CCNC1=CC(=O)c2sc(C(=O)NCCCN3CCCC3=O)nc2C1=O` [Example 5, 5-{[2-(dimethylamino)ethyl]amino}-4,7-dioxo-N-[3-(2-oxopyrrolidin-1-yl)propyl]-4,7-dihydro-1,3-benzothiazole-2-carboxamide] returned a melting point of 154 to 156 °C.

`CN(C)CCNC1=CC(=O)c2sc(C(=O)N3CCOCC3)nc2C1=O` [Example 1, 5-{[2-(dimethylamino)ethyl]amino}-2-(morpholin-4-ylcarbonyl)-1,3-benzothiazole-4,7-dione]: the melting point lay in the range of 207 to 208 °C. In turn, `CN(C)CCNC1=C(Br)C(=O)c2sc(C(=O)N3CCN(C(=O)C4CCCO4)CC3)nc2C1=O` (centres unmarked) [Example 21, 6-bromo-5-{[2-(dimethylamino)ethyl]amino}-2-{[4-(tetrahydrofuran-2-ylcarbonyl)piperazin-1-yl]carbonyl}-1,3-benzothiazole-4,7-dione] had a melting point of 161 to 162 °C. The figure for `CC(C)CNC(=O)c1nc2c(s1)C(=O)C=C(NCCN(C)C)C2=O` [Example 7, 5-{[2-(dimethylamino)ethyl]amino}-N-isobutyl-4,7-dioxo-4,7-dihydro-1,3-benzothiazole-2-carboxamide] is 163 to 164 °C; for `CN(C)CCNC1=CC(=O)c2sc(C(=O)NCCOCCOCCNC(=O)OC(C)(C)C)nc2C1=O` [Example 2, tert-butyl {2-[2-(2-{[(5-{[2-(dimethylamino)ethyl]amino}-4,7-dioxo-4,7-dihydro-1,3-benzothiazol-2-yl)carbonyl]amino}ethoxy)ethoxy]ethyl}carbamate] it is 55 to 57 °C; for `CN(C)CCNC1=CC(=O)c2sc(C(=O)NCC3CCCCC3)nc2C1=O` [Example 13, N-(cyclohexylmethyl)-5-{[2-(dimethylamino)ethyl]amino}-4,7-dioxo-4,7-dihydro-1,3-benzothiazole-2-carboxamide] it is 171 to 172 °C. The figure for `CN(C)CCNC1=CC(=O)c2nc(C(=O)N3CCCC3)sc2C1=O` [Example 34, 6-{[2-(dimethylamino)ethyl]amino}-2-(pyrrolidin-1-ylcarbonyl)-1,3-benzothiazole-4,7-dione] is 224 to 225 °C; for `COc1ccc(NC(=O)c2nc3c(s2)C(=O)C=C(NCCN(C)C)C3=O)cc1` (as salt: methanesulphonate) [Example 18, 5-{[2-(dimethylamino)ethyl]amino}-N-(4-methoxyphenyl)-4,7-dioxo-4,7-dihydro-1,3-benzothiazole-2-carboxamide] it is 207 to 208 °C. The figure for `CN(C)CCNC1=CC(=O)c2sc(C(=O)NCc3ccccc3)nc2C1=O` [Example 12, N-benzyl-5-{[2-(dimethylamino)ethyl]amino}-4,7-dioxo-4,7-dihydro-1,3-benzothiazole-2-carboxamide] is 188 to 189 °C; for `CN(C)CCNC1=CC(=O)c2sc(C(=O)Nc3ccc(F)cc3)nc2C1=O` [Example 33, 5-{[2-(dimethylamino)ethyl]amino}-N-(4-fluorophenyl)-4,7-dioxo-4,7-dihydro-1,3-benzothiazole-2-carboxamide] it is 208 to 209 °C; for `O=C1C(NCCN2CCCC2)=CC(=O)c2sc(C(=O)N3CCN(C(=O)N4CCOCC4)CC3)nc21` [Example 17, 2-{[4-(morpholin-4-ylcarbonyl)piperazin-1-yl]carbonyl}-5-[(2-pyrrolidin-1-ylethyl)amino]-1,3-benzothiazole-4,7-dione] it is 193 to 194 °C. Regarding `COCCN(CCOC)C(=O)c1nc2c(s1)C(=O)C=C(NCCN(C)C)C2=O` [Example 4, 5-{[2-(dimethylamino)ethyl]amino}-N,N-bis(2-methoxyethyl)-4,7-dioxo-4,7-dihydro-1,3-benzothiazole-2-carboxamide], the melting point was 92 to 94 °C. The figure for `CCNC(=O)c1nc2c(s1)C(=O)C=C(NCCc1ccc(F)cc1)C2=O` [Example 39, N-ethyl-5-{[2-(4-fluorophenyl)ethyl]amino}-4,7-dioxo-4,7-dihydro-1,3-benzothiazole-2-carboxamide] is 260 to 261 °C; for `COc1ccc(NC(=O)c2nc3c(s2)C(=O)C=C(NCCN(C)C)C3=O)cc1F` [Example 35, 5-{[2-(dimethylamino)ethyl]amino}-N-(3-fluoro-4-methoxyphenyl)-4,7-dioxo-4,7-dihydro-1,3-benzothiazole-2-carboxamide] it is 199 to 200 °C.

(Values after patent publication US7795284B2, “4,7-dioxobenzothiazole-2-carboxamide derivatives, their preparation and their therapeutic uses” (Ipsen Pharma S.A.S., priority 2004, dated 2010).)
